Measurements reported in ChEMBL document CHEMBL1201862, “PubChem BioAssay data set” (2004).
Active and inactive are the calls of the source.

How the values were obtained:
[1] = growth suppression of PTEN-null colon cells, dose response, cell-based, HCT116 PTEN knockout (AID 1047); type: functional;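 further: HCT116 colon tumor cells with PTEN knocked out; cells exposed to compound for 60 hours before readout; potency for loss of cell viability measured by luminescence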
[2] = target: T1, Microphthalmia-associated transcription factor (Homo sapiens, UniProt O75030); test: TRPM1 promoter luciferase signal decrease, dose response, MITF inhibitor project, cell-based, SK-MEL-5, cherry-picked, set 3 (AID 493073); type: functional
T1 sequence (O75030 whole entry): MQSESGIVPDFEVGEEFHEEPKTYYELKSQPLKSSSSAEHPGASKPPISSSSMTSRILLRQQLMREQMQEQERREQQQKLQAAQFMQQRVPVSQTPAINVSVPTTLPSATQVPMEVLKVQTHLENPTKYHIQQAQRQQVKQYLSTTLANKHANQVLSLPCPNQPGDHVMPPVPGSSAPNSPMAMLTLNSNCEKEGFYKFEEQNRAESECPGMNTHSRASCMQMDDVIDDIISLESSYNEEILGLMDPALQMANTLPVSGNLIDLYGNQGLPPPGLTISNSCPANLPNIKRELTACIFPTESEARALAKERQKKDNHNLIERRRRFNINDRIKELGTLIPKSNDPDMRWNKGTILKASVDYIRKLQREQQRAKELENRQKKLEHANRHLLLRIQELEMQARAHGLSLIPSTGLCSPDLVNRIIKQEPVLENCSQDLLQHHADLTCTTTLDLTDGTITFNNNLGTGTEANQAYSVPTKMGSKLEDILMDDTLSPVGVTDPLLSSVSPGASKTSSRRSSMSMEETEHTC

[3] = test system: A-375; test: A375 melanoma cell viability reduction, dose response, counter-screen for MITF modulator project, cherry-pick samples, set 2 (AID 540335); type: functional, cell-based; settings: Homo sapiens
[4] = growth suppression of beta-catenin-knockout colon cells, dose response, cell-based, HCT116, human colon tumor (AID 1045); type: functional;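 further: HCT116 colon tumor cells with beta catenin knocked out; cells exposed to compound for 60 hours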
[5] = Luminescence Cell-Based Dose Retest to Confirm Inhibitors of Cancer Stem Cells. [Related pubchem assays (depositor defined):AID2717, AID2721]; type: functional; settings: Homo sapiens
[6] = target: Keap1/Nrf2 (Homo sapiens, UniProt Q14145); test: Keap1-Nrf2 protein-protein interaction inhibitors, dose response, biochemical, fluorescence polarization, cherry-picked samples (AID 588683)
Sequence of Keap1/Nrf2 (Q16236 whole entry): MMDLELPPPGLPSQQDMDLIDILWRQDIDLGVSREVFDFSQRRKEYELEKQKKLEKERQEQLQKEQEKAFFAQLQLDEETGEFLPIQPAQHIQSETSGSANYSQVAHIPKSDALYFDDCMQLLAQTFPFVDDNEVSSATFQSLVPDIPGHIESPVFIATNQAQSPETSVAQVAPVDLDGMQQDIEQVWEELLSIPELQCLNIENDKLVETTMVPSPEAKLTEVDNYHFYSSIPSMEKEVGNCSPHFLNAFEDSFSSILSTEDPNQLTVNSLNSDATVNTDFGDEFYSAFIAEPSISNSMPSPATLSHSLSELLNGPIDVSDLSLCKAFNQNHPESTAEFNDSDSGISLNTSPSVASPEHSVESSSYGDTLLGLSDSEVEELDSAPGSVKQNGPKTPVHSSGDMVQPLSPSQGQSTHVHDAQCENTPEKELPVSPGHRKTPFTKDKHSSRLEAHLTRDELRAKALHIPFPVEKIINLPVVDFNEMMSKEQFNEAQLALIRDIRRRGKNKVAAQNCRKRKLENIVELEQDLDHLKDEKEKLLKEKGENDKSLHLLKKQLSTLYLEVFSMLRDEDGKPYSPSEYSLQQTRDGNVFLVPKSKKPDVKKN
Sequence of Keap1/Nrf2 (Q14145 whole entry): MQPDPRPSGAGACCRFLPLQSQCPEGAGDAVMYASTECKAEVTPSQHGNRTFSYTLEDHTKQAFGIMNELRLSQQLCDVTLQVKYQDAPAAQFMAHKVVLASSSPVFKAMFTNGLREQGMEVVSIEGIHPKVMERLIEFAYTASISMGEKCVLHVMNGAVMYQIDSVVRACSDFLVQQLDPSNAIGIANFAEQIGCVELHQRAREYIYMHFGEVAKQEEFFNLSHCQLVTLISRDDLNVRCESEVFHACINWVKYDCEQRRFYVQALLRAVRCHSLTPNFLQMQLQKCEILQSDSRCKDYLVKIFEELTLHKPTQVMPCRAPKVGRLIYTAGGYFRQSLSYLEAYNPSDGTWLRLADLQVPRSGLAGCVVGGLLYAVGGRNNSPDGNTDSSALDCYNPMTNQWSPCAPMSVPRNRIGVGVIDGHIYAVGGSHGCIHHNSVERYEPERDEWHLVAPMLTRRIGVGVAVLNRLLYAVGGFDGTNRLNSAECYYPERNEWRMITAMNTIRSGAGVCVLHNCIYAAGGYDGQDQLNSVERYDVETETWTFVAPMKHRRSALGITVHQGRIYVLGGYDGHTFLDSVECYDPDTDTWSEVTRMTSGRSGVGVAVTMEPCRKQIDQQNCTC

[7] = test system: Candida albicans; test: fluconazole resistance reversal in C. albicans, dose response, CaCi-2 strain, Alamar Blue, dry powder, set 4 (AID 488943); type: functional, organism-based
[8] = test system: Candida albicans; test: C. albicans growth inhibition with fluconazole, dose response, antifungal resistance reversal project, CaCi-2 strain, Alamar Blue, dry powder, set 2 (AID 488930); type: functional, organism-based
[9] = test system: Candida albicans; test: growth inhibition of resistant C. albicans, dose response, CaCi-8 strain, fluconazole, dry powder, set 4 (AID 488950); type: functional, organism-based
[10] = test system: Candida albicans; test: growth inhibition of azole-resistant C. albicans, dose response, CaCi-8 strain, Alamar Blue, dry powder, set 2 (AID 488909); type: functional, organism-based
[11] = test system: Candida albicans; test: Candida albicans growth inhibition, compound alone, dose response, counter-screen for antifungal drug resistance project, CaCi-2 strain, Alamar Blue, dry powder, set 2 (AID 488893); type: functional, organism-based
[12] = test system: Candida albicans; test: Candida albicans growth inhibition, agent alone, dose response, counter-screen for reversing antifungal drug resistance, CaCi-2 strain, no fluconazole, dry powder, set 4 (AID 488932); type: functional, organism-based
[13] = test system: Jurkat; test: SAR Analysis of small molecule inhibitors of T-cell specific antigen receptor-induced NF-kB activation in a Jurkat cell line using a luminescence assay - Set 2. [Related pubchem assays (depositor defined):AID435003, AID435012, AID465]; type: functional, cell-based; settings: Homo sapiens
[14] = test system: HEK293; test: SAR Analysis of small molecule inhibitors of T-cell specific antigen receptor-induced NF-kB activation in a HEK-293T cell line using a luminescence assay - Set 2. [Related pubchem assays (depositor defined):AID435003, AID435012, AID489026]; type: functional, cell-based; settings: Homo sapiens
[15] = test system: HEK293; test: cytotoxicity in HEK293T NF-kB-Luc cells, SAR follow-up, cytotoxicity control for NF-kB activator project, cell-based, resazurin fluorescence (AID 493251); type: functional; settings: Homo sapiens

Q: With `O=C1C(Cl)=C(Nc2ccccc2)C(=O)c2ccccc21` as the molecule, how does the EC50 [1] read?
A: 8.47 µM (active)

Q: And the AC50 [2]?
A: 2.88 µM (active)

Q: And the AC50 [3]?
A: 4.17 µM (active)

Q: What about the EC50 [4] of the same molecule?
A: 4.77 µM (active)

Q: And the AC50 [5]?
A: 0.779 µM (active)

Q: Which AC50 [6] does the source give for `O=c1cc(CN2CCCc3ccccc32)nc2sccn12` here?
A: 17.1 µM (active)

Q: For `CC1CN(c2ccnc3cc(Cl)ccc23)CCN1C(=O)c1ccc(Cl)cc1` (stereo unspecified), which AC50 [7] is on record?
A: 0.783 µM (active)

Q: And the AC50 [8]?
A: 0.645 µM (active)

Q: What about the AC50 [9] of the same molecule?
A: 1.82 µM (active)

Q: What about the AC50 [10] of the same molecule?
A: 6.14 µM (active)

Q: Which AC50 [11] does the source give for `COCCC(=O)N1CCN(c2ccnc3cc(Cl)ccc23)CC1` here?
A: > 260 µM (inactive)

Q: What about the AC50 [9] of the same molecule?
A: 72.5 µM (active)

Q: What about the AC50 [12] of the same molecule?
A: 136 µM (active)

Q: What does the source list for `COc1ccccc1C(NC(C)=O)c1ccc2cccnc2c1O` (stereo unspecified)?
A: IC50 [13]: 7.09 µM (active); IC50 [14]: 7.96 µM (active); IC50 [15]: 7.73 µM (active)
